From patent USRE37355E, “6-dimethylaminomethyl-1-phenyl-cyclohexane compounds as pharmaceutical active ingredients” (priority 1995, dated 2001)

Test system: mice
Assay: Testing for analgesia using the tail flick test on mice
Assay type: in vivo, NMRI mice
Conditions: Mus musculus, 20 min; NMRI mice, intravenous, 20 minutes after administration; Litchfield and Wilcoxon; read-out: ED50 (tail flick test, analgesia)
Description: Testing for analgesia using the tail flick test on mice
The analgesic effectiveness of the compounds according to the invention was investigated in the thermal radiation (tail flick) test on mice using the method of D'Amour and Smith (J. Pharm. Exp. Ther. 72, 74-79 (1941). […]. The animals were placed in a special test cage and the bases of their tails were exposed to the focused thermal radiation from an electric lamp (Rhema Analgesiemeter Type 3010). The lamp intensity was adjusted so that the time from switching on the lamp until the sudden twitching away of the tail (latency of pain) was 3-5 seconds for untreated animals. Before the administration of a compound according to the invention, the animals were pre-tested twice within five minutes and the average value of these measurements was calculated as the pre-test average. The pain measurement was made 20, 40 and 60 minutes after intravenous administration. […]. In order to determine the dosage-dependency, the respective compound according to the invention was applied in doses increasing logarithmically by a factor of 3-5, which included the threshold and the maximum effective dose each time. The ED50 values were determined from the number of analgesic animals by the method of Litchfield and Wilcoxon (J. Pharm. Exp. Ther. 96, 99-113, (1949)). Calculation of the ED50 was made at the effective maximum 20 minutes after intraveneous adminstration of the substance.

Which ED50 does the source give for COc1cccc([C@@H]2CCCC[C@@H]2CN(C)C)c1.Cl [(+6), (+)-(1S,2R)-[2-(3-methoxy-phenyl)-cyclohexylmethyl]-dimethylamine hydrochloride] here?
The ED50 was 10.7 mg/kg.

How did the ED50 turn out when CC(=O)Oc1ccccc1C(=O)Oc1cccc([C@@H]2CCCC[C@@H]2CN(C)C)c1.Cl [(-10), (-)-(1R,2S)-2-acetoxy-benzoic acid-3-(2-dimethylaminomethyl-cyclohexyl)-phenyl ester hydrochloride] was run?
Its ED50 is 8.71 mg/kg.

CC(C)COC(=O)Oc1cccc([C@@H]2CCCC[C@@H]2CN(C)C)c1.Cl [(-11), (-)-(1R,2S)-carbonic acid-[3-(2-dimethylaminomethyl-cyclohexyl)-phenyl]-ester-isobutyl ester hydrochloride] was tested. Which ED50 did it give?
Its ED50 is 5.01 mg/kg.

For COc1cccc([C@@]2(O)C[C@H](O)CC[C@@H]2CN(C)C)c1.Cl (racemic) [(17), (1RS,3RS,6RS)-6-dimethylaminomethyl-1-(3-methoxy-phenyl)-cyclohexane-1,3-diol hydrochloride], which ED50 is on record?
The ED50 was 5.54 mg/kg.

With CN(C)C[C@H]1CC[C@@H](O)C[C@]1(O)c1cccc(O)c1.Cl [(+21), (+)-(1R,3R,6R)-6-dimethylaminomethyl-1-(3-hydroxy-phenyl)-cyclohexane-1,3-diol hydrochloride] as the molecule, how does the ED50 read?
The ED50 was 7.34 mg/kg.

For CN(C)C[C@H]1CCCC[C@H]1c1cccc(O)c1.Cl [(-7), (-)-(1R,2S)-3-(2-dimethylaminomethyl-cyclohexyl)-phenol hydrochloride], which ED50 is on record?
The ED50 was 5.9 mg/kg.

Which ED50 does the source give for CN(C)C[C@@H]1CCCC[C@@]1(F)c1cccc(O)c1.Cl [(-1), (-)-(1S,2S)-3-(2-dimethylaminomethyl-1-fluoro-cyclohexyl)-phenol hydrochloride] here?
The ED50 was 2.28 mg/kg.

Which ED50 does the source give for CN(C)C[C@H]1CCCC[C@]1(Cl)c1cccc(O)c1.Cl [(+5), (+)-(1R,2R)-3-(1-chloro-2-dimethylaminomethyl-cyclohexyl)-phenol hydrochloride] here?
The ED50 was 2.78 mg/kg.

With COc1cccc([C@@]2(O)C[C@H](O)CC[C@@H]2CN(C)C)c1.Cl [(+17), (+)-(1R,3R,6R)-6dimethylaminomethyl-1-(3-methoxy-phenyl)-cyclohexane-1,3-diol hydrochloride] as the molecule, how does the ED50 read?
Its ED50 is 3.93 mg/kg.

CN(C)C[C@H]1CCCC[C@H]1c1cccc(OC(=O)C(C)(C)C)c1.Cl [(-8), (-)-(1R,2S)-2,2-dimethylpropionic acid-3-(2-dimethylaminomethyl-cyclohexyl)-phenyl ester hydrochloride] was tested. Which ED50 did it give?
Its ED50 is 4.61 mg/kg.

CN(C)C[C@@H]1CCCC[C@@H]1c1cccc(O)c1.Cl [(+7), (+)-(1S,2R)-3-(2-dimethylaminomethyl-cyclohexyl)-phenol hydrochloride] was tested. Which ED50 did it give?
The ED50 was 1.13 mg/kg.

For CN(C)C[C@H]1CCCC[C@]1(F)c1cccc(O)c1.Cl [(+1), (+)-(1R,2R)-3-(2-dimethylaminomethyl-1-fluoro-cyclohexyl)-phenol hydrochloride], which ED50 is on record?
Its ED50 is 0.64 mg/kg.

Same assay, conditions: Mus musculus, iv, 20 min, read-out: ED50 (tail flick test, analgesia)

For COc1cccc([C@@]2(O)CCCC[C@@H]2CN(C)C)c1.Cl (racemic) [Tramadol, (1RS,2RS)-2[(dimethylamino)methyl]-1-(3-methoxyphenyl)cyclohexanol hydrochloride, reference compound], which ED50 is on record?
Its ED50 is 13.6 mg/kg.
